Like-named read-outs stand apart in the source and are kept apart here.
How the values were obtained:
[1] = biological target: T1, GST-GK derived from human liver GK (Homo sapiens, UniProt P35557); assay: In vitro GK activating action measurement test; format: biochemical; conditions: 10 min; test compound 1 μmol/L, glucose 2.5 mmol/L, 25° C.; read-out: GK activation rate (%)
T1 construct: made in house; host or cells: Escherichia coli DH5α
T1 sequence (P35557 1-466 isoform P35557-2): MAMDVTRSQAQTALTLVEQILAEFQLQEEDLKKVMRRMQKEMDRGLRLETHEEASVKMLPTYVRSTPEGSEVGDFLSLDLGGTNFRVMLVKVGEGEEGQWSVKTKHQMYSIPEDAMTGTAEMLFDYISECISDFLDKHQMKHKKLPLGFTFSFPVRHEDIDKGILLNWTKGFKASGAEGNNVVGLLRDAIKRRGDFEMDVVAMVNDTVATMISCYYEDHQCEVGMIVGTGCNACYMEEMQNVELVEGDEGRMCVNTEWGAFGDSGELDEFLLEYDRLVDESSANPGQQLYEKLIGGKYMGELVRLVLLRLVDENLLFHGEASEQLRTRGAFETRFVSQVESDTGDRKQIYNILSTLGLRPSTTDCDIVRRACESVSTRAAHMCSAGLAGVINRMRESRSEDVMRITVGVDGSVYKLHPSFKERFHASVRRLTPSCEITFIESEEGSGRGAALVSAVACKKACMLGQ
Description: cDNA (GenBank Accession No. NM_033507, human glucokinase, variant 2) encoding human liver-type GK polypeptide was cloned by performing a polymerase chain reaction (hereinafter referred to as “PCR”) using a human liver cDNA library (Human liver QUICK-Clone cDNA, TAKARA BIO INC.), and the thus cloned cDNA was then introduced into an expression vector (pGEX-3X, GE Healthcare Japan) for glutathione S transferase (hereinafter referred to as GST) fusion proteins. The resulting vector was introduced into Escherichia coli (Competent high DH5α, Toyobo Co., Ltd.), and the transformed Escherichia coli was then cultured at 37° C. Thereafter, Isopropyl β-D-1-thiogalactopyranoside (final concentration: 1 mmol/L, Sigma Aldrich Japan) was added to the culture, and the obtained mixture was then cultured at 30° C. for 3 hours. Thereafter, a cell mass was recovered. The recovered cell mass was subjected to freezing-and-thawing, and the resulting cell mass was then suspended in Triton-X that had been added in a final concentration of 1% to a phosphate buffer, followed by disintegration with an ultrasonic disintegrator. The homogenate was centrifuged at 33,200 rpm at 4° C. for 1 hour. Thereafter, the supernatant was recovered, and a GST-GK fusion protein was then purified using a glutathione column (GSTrap FF, GE Healthcare Japan). The obtained GST-GK fusion protein was divided into some portions each having a small volume, and the thus divided proteins were then preserved at −80° C.
A GK assay was carried out at 25° C. at a final incubation volume of 100 μL using a flat-bottom 96-well assay plate. An assay buffer comprised 25 mmol/L Hepes buffer (pH 7.1), 25 mmol/L KCl, 2.5 mmol/L or 10 mmol/L D-glucose, 5 mmol/L ATP, 1 mmol/L nicotinamide adenine dinucleotide phosphate (abbreviated as NADP), 2 mmol/L MgCl2, 1 mmol/L dithiothreitol (DTT), 2 units/mL glucose-6 phosphate dehydrogenase (G6PDH), and 1 μg/mL GST-GK derived from human liver GK. ATP, G6PDH, and NADP were purchased from Roche Diagnostics. […] The thus mixed solution was preincubated in an incubator in which the temperature was controlled at 25° C. for 15 minutes. Subsequently, the reaction was initiated by adding 10 μL of the GST-GK solution to the reaction mixture, resulting in a final concentration of 0.1 μg/mL. After initiation of the reaction, an increase in the optical concentration at 340 nm (OD340) was monitored with a microplate spectrophotometer (Varsamax, Molecular Devices Japan K. K.) every 10 seconds over an incubation period of 10 minutes. An inclination of the OD340 increase was defined as raw data. The GK activating rate was indicated as a numerical value obtained from the expression: (Inclination of OD340 increase by addition of the test compound)/(inclination of OD340 increase without addition of the test compound). The results of the GK activating rate obtained at a test compound concentration of 1 μmol/L under the condition of a glucose concentration of 2.5 mmol/L are shown in the following table 2.

[2] = Evaluation of organ selectivity (non-binding drug concentration in liver and pancreas after oral administration); format: in vivo, normal mice (C57BL/6j mice); conditions: C57BL/6j, mouse, liver and pancreas, mice, 150 minutes after administration
[3] = as above; format: in vivo, normal mice (C57BL/6j mice); conditions: C57BL/6j, mouse, mice, 150 minutes after administration
Description: A test compound suspended in 10% (v/v) Gelucire 44/14 (GATTEFOSSE) was orally administered to normal mice (C57BL/6j mice, CLEA Japan, Inc.). The percentages of drugs that had not bound to proteins in the liver and the pancreas, which had been obtained by the in vitro test, were […] the total concentrations of the drugs in the liver and the pancreas obtained 150 minutes after administration of the drugs, so as to calculate the non-binding concentration of the drug in each case. The ratio of the non-binding concentration of the drug in the […] was calculated, and thus, liver selectivity was evaluated. As a comparative compound, PSN-GK1 described in non-patent document 11 (corresponding to Example 94 of patent document 2) was produced according to the method described in patent document 2, and the produced comparative compound was then evaluated in the same manner as described above (in the table, the comparative compound is indicated as PSN-GK1).

[4] = liver, dose 10 mg/kg, read-out: Non-binding concentration (ng/mL) Liver
[5] = pancreas, dose 10 mg/kg, read-out: Non-binding concentration (ng/mL) Pancreas

For `O=C(Nc1ncc(F)s1)[C@H](C[C@H]1CCN(C(=O)NO)C1)c1ccc(S(=O)(=O)C2CC2)cc1` [Example 10, (S)-3-((R)-2-(4-(cyclopropylsulfonyl)phenyl)-3-((5-fluorothiazol-2-yl)amino)-3-oxopropyl)-N-hydroxypyrrolidine-1-carboxamide], which activity at 1 µM [1] is on record?
The activity at 1 µM was 602%.

For `CNC(=O)N1CC[C@H](C[C@@H](C(=O)Nc2ncc(C)s2)c2ccc(S(=O)(=O)C3CC3)cc2)C1` [Example 16, (S)-3-((R)-2-(4-(cyclopropylsulfonyl)phenyl)-3-((5-methylthiazol-2-yl)amino)-3-oxopropyl)-N-methylpyrrolidine-1-carboxamide], which activity at 1 µM [1] is on record?
The activity at 1 µM was 484%.

Which selectivity ratio at 150 min ([2]; dose 10 mg/kg) does the source give for `CNC(=O)N1CC[C@H](C[C@@H](C(=O)Nc2ccc(C)cn2)c2ccc(S(=O)(=O)C3CC3)cc2)C1` [Example 19, (S)-3-((R)-2-(4-(cyclopropylsulfonyl)phenyl)-3-((5-methylpyridin-2-yl)amino)-3-oxopropyl)-N-methylpyrrolidine-1-carboxamide] here?
Its selectivity ratio at 150 min is 17.

What about the concentration at 150 min [3, 4] of the same molecule?
The concentration at 150 min was 10 ng/mL.

What about the concentration at 150 min [3, 5] of the same molecule?
Its concentration at 150 min is 0.58 ng/mL.

And the activity at 1 µM [1]?
The activity at 1 µM was 437%.

What does the source list for `CC(=O)N1CC[C@H](C[C@@H](C(=O)Nc2ncc(F)s2)c2ccc(S(=O)(=O)C3CC3)cc2)C1` [Example 3, (R)-3-((S)-1-acetylpyrrolidin-3-yl)-2-(4-(cyclopropylsulfonyl)phenyl)-N-(5-fluorothiazol-2-yl)propanamide]?
selectivity ratio at 150 min ([2]; dose 10 mg/kg): 17; concentration at 150 min [3, 4]: 65 ng/mL; concentration at 150 min [3, 5]: 3.8 ng/mL; activity at 1 µM [1]: 803%

For `CNC(=S)N1CC[C@H](C[C@@H](C(=O)Nc2ncc(F)s2)c2ccc(S(=O)(=O)C3CC3)cc2)C1` [Example 8, (R)-2-(4-(cyclopropylsulfonyl)phenyl)-N-(5-fluorothiazol-2-yl)-3-((S)-1-(methylcarbamothioyl)pyrrolidin-3-yl)propanamide], which activity at 1 µM [1] is on record?
The activity at 1 µM was 535%.

For `CCCNC(=O)N1CC[C@H](C[C@@H](C(=O)Nc2ncc(F)s2)c2ccc(S(=O)(=O)C3CC3)cc2)C1` [Example 6, (S)-3-((R)-2-(4-(cyclopropylsulfonyl)phenyl)-3-((5-fluorothiazol-2-yl)amino)-3-oxopropyl)-N-propylpyrrolidine-1-carboxamide], which activity at 1 µM [1] is on record?
The activity at 1 µM was 422%.

For `Cc1ccc(NC(=O)[C@H](C[C@H]2CCN(C(N)=O)C2)c2ccc(S(=O)(=O)C3CC3)cc2)nc1` [Example 21, (S)-3-((R)-2-(4-(cyclopropylsulfonyl)phenyl)-3-((5-methylpyridin-2-yl)amino)-3-oxopropyl)pyrrolidine-1-carboxamide], which selectivity ratio at 150 min ([2]; dose 10 mg/kg) is on record?
Its selectivity ratio at 150 min is 25.

And the concentration at 150 min [3, 4]?
Its concentration at 150 min is 50 ng/mL.

What about the concentration at 150 min [3, 5] of the same molecule?
Its concentration at 150 min is 2 ng/mL.

And the activity at 1 µM [1]?
Its activity at 1 µM is 727%.

For `CNC(=O)N1CC[C@H](C[C@@H](C(=O)Nc2ncc(OC)s2)c2ccc(S(=O)(=O)C3CC3)cc2)C1` [Example 14, (S)-3-((R)-2-(4-(cyclopropylsulfonyl)phenyl)-3-((5-methoxythiazol-2-yl)amino)-3-oxopropyl)-N-methylpyrrolidine-1-carboxamide], which activity at 1 µM [1] is on record?
The activity at 1 µM was 809%.

For `CNC(=O)N1CC[C@H](C[C@@H](C(=O)Nc2ncc(F)s2)c2ccc(S(=O)(=O)C3CC3)cc2)C1` [Example 2, (S)-3-((R)-2-(4-(cyclopropylsulfonyl)phenyl)-3-((5-fluorothiazol-2-yl)amino)-3-oxopropyl)-N-methylpyrrolidine-1-carboxamide], which selectivity ratio at 150 min ([2]; dose 30 mg/kg) is on record?
Its selectivity ratio at 150 min is 41.

And the concentration at 150 min ([3]; liver, dose 30 mg/kg, read-out: Non-binding concentration (ng/mL) Liver)?
The concentration at 150 min was 23 ng/mL.

And the concentration at 150 min ([3]; pancreas, dose 30 mg/kg, read-out: Non-binding concentration (ng/mL) Pancreas)?
Its concentration at 150 min is 0.56 ng/mL.

Which activity at 1 µM [1] does the source give for `CNC(=O)N1CC[C@H](C[C@@H](C(=O)Nc2ncc(Cl)s2)c2ccc(S(=O)(=O)C3CC3)cc2)C1` [Example 15, (S)-3-((R)-3-((5-chlorothiazol-2-yl)amino)-2-(4-(cyclopropylsulfonyl)phenyl)-3-oxopropyl)-N-methylpyrrolidine-1-carboxamide] here?
The activity at 1 µM was 737%.

For `CNC(=O)C(=O)N1CC[C@H](C[C@@H](C(=O)Nc2ncc(F)s2)c2ccc(S(=O)(=O)C3CC3)cc2)C1` [Example 11], which activity at 1 µM [1] is on record?
The activity at 1 µM was 427%.

Which activity at 1 µM [1] does the source give for `O=C(Nc1ncc(F)s1)[C@H](C[C@H]1CCN(C(=O)CO)C1)c1ccc(S(=O)(=O)C2CC2)cc1` [Example 13, (R)-2-(4-(cyclopropylsulfonyl)phenyl)-N-(5-fluorothiazol-2-yl)-3-((S)-1-(2-hydroxyacetyl)pyrrolidin-3-yl)propanamide] here?
The activity at 1 µM was 443%.

With `COc1cnc(NC(=O)[C@H](C[C@H]2CCN(C(C)=O)C2)c2ccc(S(=O)(=O)C3CC3)cc2)s1` [Example 26, (R)-3-((S)-1-acetylpyrrolidin-3-yl)-2-(4-(cyclopropylsulfonyl)phenyl)-N-(5-methoxythiazol-2-yl)propanamide] as the molecule, how does the activity at 1 µM [1] read?
The activity at 1 µM was 877%.

Which results are given for `CC(=O)N1CC[C@H](C[C@@H](C(=O)Nc2ccc(C)cn2)c2ccc(S(=O)(=O)C3CC3)cc2)C1` [Example 23, (R)-3-((S)-1-acetylpyrrolidin-3-yl)-2-(4-(cyclopropylsulfonyl)phenyl)-N-(5-methylpyridin-2-yl)propanamide]?
selectivity ratio at 150 min ([3]; liver and pancreas, dose 3 mg/kg): 9; concentration at 150 min ([3]; liver, dose 3 mg/kg, read-out: Non-binding concentration (ng/mL) Liver): 3 ng/mL; concentration at 150 min ([3]; pancreas, dose 3 mg/kg, read-out: Non-binding concentration (ng/mL) Pancreas): 0.33 ng/mL; activity at 1 µM [1]: 491%

Which activity at 1 µM [1] does the source give for `COC(=O)N1CC[C@H](C[C@@H](C(=O)Nc2ncc(F)s2)c2ccc(S(=O)(=O)C3CC3)cc2)C1` [Example 7, (S)-methyl 3-((R)-2-(4-(cyclopropylsulfonyl)phenyl)-3-((5-fluorothiazol-2-yl)amino)-3-oxopropyl)pyrrolidine-1-carboxylate] here?
Its activity at 1 µM is 828%.

Reference: patent US9242978B2, “Phenylacetamide compound and pharmaceutical containing same” (KOWA COMPANY, LTD., priority 2012, dated 2016)
